# Columns and labels:
# [1] = test system: APP/PS1 transgenic mice; assay: Open field test (OFT); assay type: in vivo; conditions: B14 10, 20, 40 mg/kg i.p. every other day
# Excerpt: (§1) Five months old male APP/PS1 mice, weighing 25–33 g, were purchased from Guangdong Medical Laboratory Animal Center and housed in the Laboratory Animal Center of Sun Yat-sen University (Guangzhou, China) for experimentation. All procedures were approved by the Animal Care and Use Committee of Sun Yat-sen University and complied with legal requirements and national guidelines for the care and maintenance of laboratory animals (Approval No. SYSU-IACUC-2024-002032). The mice were housed in a specific pathogen-free environment with a controlled temperature of 22 ± 1 °C and a 12-h dark/light cycle. The mice were fed with a standard diet, and 30 mice were randomly divided into 6 groups (N = 5). Compound B14 was dissolved in saline and administered at doses of 10, 20, or 40 mg/kg. APP/PS1 male mice were grown until 6 months of age, and then injected intraperitoneally with compound B14 every other day for 60 days. Behavioral experiments were then conducted, and tissue specimens were collected for biochemical analysis.
# The spatial memory and learning abilities of the mice were assessed using Morris water maze (MWM), novel object recognition (NOR) and nesting experiments (NBT). The anxiety and depressive behaviors were evaluated through the open field test (OFT) and elevated plus maze (EPM). Detailed experimental procedures are provided in the supplementary information. […]
# [2] = target: HRAS promoter i-motif; assay: SPR binding to HRAS promoter i-motif; conditions: MES buffer pH 5.5
# [3] = target: T1, Aβ1-42 (Homo sapiens, UniProt P05067); assay: Circular dichroism of Aβ1-42 secondary structure; assay type: biochemical; conditions: 20 μM compound, 72 h
# T1 construct: Aβ1-42 was purchased from Gill Biochemicals Ltd (Shanghai, China); purchased Gill Biochemicals Ltd (Shanghai, China)
# T1 sequence (P05067 672-713 limits assumed): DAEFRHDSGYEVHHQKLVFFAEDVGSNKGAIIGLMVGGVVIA
# Experimental: (§2) The circular dichroism (CD) experiment was performed to investigate the effect of B14 (20 μM) or Curcumin (20 μM) on the change of Aβ1-42 secondary structure. The Aβ1-42 solutions (100 μM) were co-incubated with B14 (20 μM) or Curcumin (20 μM) at 37 °C for 72h. Ellipticity changes of Aβ1-42 were monitored employing a Chirascan CD spectropolarimeter (Chirascan, England).
# as §2, with “Circular dichroism” for “The circular dichroism”, “μM) and” for “μM) or”, “spectropolarimeter (Applied Photophysics, UK).” for “spectropolarimeter (Chirascan, England).”
# [4] = target: BCL-2 gene promoter i-motif; assay: SPR binding to BCL-2 promoter i-motif; conditions: MES buffer pH 5.5, 25 °C
# Experimental: SPR measurement was performed on a ProteOn XPR36 protein interaction array system (Bio-Rad Laboratories, Hercules, California, USA) using a Neutravidin-coated GLH sensor chip. BCL-2 i-motif binding analysis was performed following a published method without significant modification. For immobilization, 5′-biotin-labeled DNA oligomers at 800 nM annealed in 1 × MES buffer at pH 5.5 by heating at 95 °C for 5 min, were attached to a reptavidin-coated sensor chip. Compounds were prepared through serial dilution with flowing buffer (20 mM MES, 100 mM KCl, pH 5.5 for i-motif) in at least 6 concentrations, which were simultaneously injected at a flow rate of […] for a 120 s of association phase, followed by 250 s of dissociation phase at 25 °C. Langmuir model was used for fitting kinetic data, which was analyzed with ProteOn manager software. KD values were determined through equation KD = kd/ka. Compound A22 was used as a positive control, and other compounds were selected as candidates only if their KD values for binding to BCL-2 i-motif were similar to that of A22.
# [5] = test system: APP/PS1 transgenic mice; assay: Nest building test (NBT); assay type: in vivo; conditions: B14 10, 20, 40 mg/kg i.p. every other day
# Excerpt: as §1, with “APP/PS1 male mice were grown until 6 months of age, and then injected intraperitoneally with compound B14 every other day for 60 days. Behavioral experiments were then conducted, and tissue specimens were collected for biochemical analysis.” left out
# The spatial memory and learning abilities of the mice were assessed using Morris water maze (MWM), novel object recognition (NOR) and nesting experiments (NBT). The anxiety and depressive behaviors were evaluated through the open field test (OFT) and elevated plus maze (EPM). […]
# The nest building test (NBT) assesses fine motor dexterity, cognitive function, and emotional states in mice while minimizing stress. […] After this period, photographs were taken of the paper sheets, and the nests built by the mice were scored.
# [6] = test system: APP/PS1 transgenic mice; assay: TUNEL staining of brain sections; assay type: in vivo; conditions: B14 10, 20, 40 mg/kg i.p. every other day
# Excerpt: as §1
# [7] = test system: APP/PS1 transgenic mice; assay: Histopathological examination (HE) of vital organs; conditions: mouse, in vivo
# Excerpt: as §1
# The mice were sacrificed, with their brains and organs isolated and embedded in paraffin. The brains and organs were then sectioned into 6 μm thin slices. These slices were subjected to H&E or Nissl staining (Servicebio, Guangzhou, China). The stained sections were subsequently imaged and analyzed by using microscopy.
# Figure S11. […]
# [8] = test system: F-BCL-2(G4) (DNA, G4) AGGGGCGGGCGCGGGAGGAAGGGGGCGGGAGCGGGGCTG; assay: MST; conditions: K+ 100 mM; 50 mM Tris-HCl, pH 7.4; highest B14 concentration 50 μM
# [9] = target: (G2C4)6 promoter i-motif; assay: SPR binding to (G2C4)6 promoter i-motif; conditions: MES buffer pH 5.5
smiles,measurement,setting,value
O=C(CCN1CCOCC1)Nc1ccc2c(c1)c(=O)c1cc(NC(=O)CCN3CCOCC3)ccc1n2-c1ccc2occc2c1 [Compound B14],range and duration of activity (OFT),[1],significant improvement in the range and duration of activity
same,Kd,[2],> 50 µM
same,CD signal intensity of Aβ1-42,[3],much decreased
same,Kd,[4],2.13 µM
same,nesting scores (NBT),[5],significantly improved
same,proportion of TUNEL-positive neurons,[6],significantly decreased the proportion of TUNEL-positive neurons
same,"histopathology of heart, liver, spleen, lungs, kidney",[7],no significant detrimental effect for these organs
same,KD,[8],59.75 µM
same,Kd,[9],33.3 µM
